Results from US12522602B2, “Derivatives having 2,3-dihydro-1H-indene or 2,3-dihydrobenzofuran moiety or pharmaceutically acceptable salt thereof and pharmaceutical compositions comprising the same” (YUHAN CORPORATION, priority 2019, dated 2026).
pIC50: −log10 of the molar value.

Assays:
[1] = tested on: GM1 production in Jurkat cells; test: cells; assay type: cell-based; details: read-out: IC50
[2] = target: glucosylceramide synthase (GCS) (Homo sapiens (Human), UniProt Q16739); test: Inhibitory activity against GCS (A549 cell lysate enzyme reaction, HPLC fluorescence); assay type: biochemical; details: NBD C6-ceramide and UDP-glucose, 37° C. for 90 minutes
Protocol: Ibiglustat, known as a GCS inhibitor, was used as a control.
After the cells attached to the culture dish were washed with phosphate buffered saline (PBS), the cells were scraped off with a cell scraper and then centrifuged (4000 rpm, 3 min, 4° C.) to collect the cells in a 50 ml tube. The cell pellets were suspended in a lysis buffer (50 mM HEPES, pH 7.3, containing 1× the protease/phosphatase inhibitor cocktail), lysed by sonication, and then the lysate was centrifuged (13000 rpm, 10 min, 4° C.). The obtained supernatant was used for the quantitative analysis of proteins. The amount of proteins was measured using the BCA protein assay kit, using bovine serum albumin as a standard.
Enzymatic reactions were initiated by sequentially adding the following reaction materials to a 96 deep-well plate. Thereafter, the enzymatic reactions were performed at 37° C. for 90 minutes.
The enzymatic reactions were stopped by adding 100 μl of chloroform/methanol (2:1, v/v). […] The lower layer (50 μl) was transferred to a new 96 deep-well plate and dried with a reduced concentrator.

Question: “(S)-quinuclidin-3-yl (2,2-dimethyl-(2,4,5-trifluorophenyl)-2,3-dihydro-1H-inden-1-yl)carbamate [Example 68]” was tested. Which pIC50 [1] did it give?
Answer: 7.04

Question: What about the pIC50 [2] of the same substance?
Answer: 7.82
